pEC50, pIC50: −log10 of the molar value.
What was measured:
[1] = molecular target: T1, interaction between the recombinant extracellular domain (ECD) of PD-1 and native cell-bound PD-L1 (Homo sapiens, UniProt Q9NZQ7); experiment: CHO/PD-L1 cell capture assay; format: cell-based; settings: CHO cells overexpressing PD-L1, pre-incubated 1 hr with compound, captured on biotinylated Fc-PD-1 coated plates, 75 min at room temperature
T1 construct: expressed in transfected cells
Procedure, shortened: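 CHO cells stably overexpressing PD-L1 were pre-incubated 1 hr with compound, then captured 75 min at room temperature on biotinylated Fc-PD-1 ECD bound to streptavidin plates. After glutaraldehyde/Draq5 fixation-staining, captured cells were counted by high-content microscopy; EC50 from four-parameter dose-response fits.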

[2] = molecular target: T2, PD-L1 (Homo sapiens, UniProt Q9NZQ7); experiment: PD-L1/PD-L1 dimerization biochemical protein-protein interaction assay (ALPHA); format: binding; settings: compound-induced PD-L1 dimerization, head prints '1 nM' (0.5 nM His-tagged PD-L1 and 0.5 nM FLAG-tagged PD-L1), read-out: AC50 PDL1 Dimer Alpha 1 nM
T2 construct: determine if they can specifically dimerize the extracellular domains of PD-L1
Procedure, shortened: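 ALPHA proximity assay of compound-induced dimerization of 0.5 nM His-tagged and 0.5 nM FLAG-tagged PD-L1 extracellular domains in Hepes pH 7.4 buffer, 2 h at 25 °C. Anti-His acceptor then anti-FLAG donor beads, 60 min each; AC50 from four-parameter fit.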

[3] = molecular target: T3, PD-1/PD-L1 interaction (Homo sapiens, UniProt Q9NZQ7); experiment: PD-1/PD-L1 NFAT reporter co-culture assay; format: cell-based; settings: Jurkat PD-1 NFAT-luciferase cells co-cultured with aAPC-PD-L1 CHO cells, 6 hrs at 37° C.; read-out: EC50 NFAT Luciferase
T3 construct: expressed in transfected cells; host or cells: CHO cells (aAPC-PD-L1) co-cultured with Jurkat cells overexpressing PD-1 and an NFAT-luciferase reporter
Procedure, shortened: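 CHO aAPC-PD-L1 seeded overnight; PD-1/NFAT-luc Jurkat + cpd in RPMI 1640, 2% FBS added at once; 6 h, 37 °C; ONE-Glo luminescence; EC50, 4-parameter fit.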

[4] = molecular target: PD-1/PD-L1 (Homo sapiens, UniProt Q9NZQ7); experiment: PD-1/PD-L1 biochemical protein-protein interaction assay (ALPHA); format: binding; settings: 0.3 nM His tagged PD-L1, 2.5 nM biotinylated Fc-PD-1, 60 minutes at 25° C., read-out: IC50 PD-L1-PD-1 Alpha IC50-mono PD-L1-fcP-D1
Procedure, shortened: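 ALPHA bead proximity assay of extracellular domains: 0.3 nM His-PD-L1 with 2.5 nM biotinylated Fc-PD-1 in 25 mM Hepes pH 7.4, 150 mM NaCl, 3.4 mM EDTA, 0.005% Tween 20, 0.01% BSA, 60 min at 25 °C. Anti-His acceptor and streptavidin donor beads added; IC50 from four-parameter fit of signal loss.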

T1 sequence (Q9NZQ7 19-290): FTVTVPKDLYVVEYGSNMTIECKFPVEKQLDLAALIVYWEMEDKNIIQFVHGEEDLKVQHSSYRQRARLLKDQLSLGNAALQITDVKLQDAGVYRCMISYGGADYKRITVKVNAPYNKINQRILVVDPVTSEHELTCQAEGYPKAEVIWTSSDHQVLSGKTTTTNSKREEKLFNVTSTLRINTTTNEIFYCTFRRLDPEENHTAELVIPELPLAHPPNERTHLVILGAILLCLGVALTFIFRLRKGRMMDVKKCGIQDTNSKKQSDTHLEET
T3 sequence (Q9NZQ7 19-290): as above
T2 sequence (Q9NZQ7 19-238 limits assumed): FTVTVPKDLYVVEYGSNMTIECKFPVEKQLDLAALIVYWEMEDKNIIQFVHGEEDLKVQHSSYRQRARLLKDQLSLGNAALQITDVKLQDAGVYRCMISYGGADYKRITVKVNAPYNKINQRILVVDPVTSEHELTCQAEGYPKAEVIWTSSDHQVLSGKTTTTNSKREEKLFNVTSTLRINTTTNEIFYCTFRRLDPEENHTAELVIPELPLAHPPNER
T2 sequence (Q9NZQ7 19-238 limits assumed): as above
PD-1/PD-L1, sequence (Q9NZQ7 19-238 limits assumed): as above

Structure (SMILES)	pEC50 [1]	AC50 [2]	pEC50 [3]	pIC50 [4]
COc1nc(OCc2cccc(-c3cccc(COc4nc(OC)c(C5=NCCN5)cc4Cl)c3C)c2C)c(Cl)cc1C1=NCCN1 [Example 30, 6,6′-(((2,2′-dimethyl-[1,1′-biphenyl]-3,3′-diyl)bis(methylene))bis(oxy))bis(5-chloro-3-(4,5-dihydro-1H-imidazol-2-yl)-2-methoxypyridine)]	7.28	369 nM	≤ 4.30	–
COc1nc(OCc2cccc(-c3cccc(COc4nc(OC)c(CN[C@](C)(CO)C(=O)O)cc4Cl)c3C)c2C)c(Cl)cc1CN[C@](C)(CO)C(=O)O [Example 43, (2R,2′R)-2,2′-((((((2,2′-dimethyl-[1,1′-biphenyl]-3,3′-diyl)bis(methylene))bis(oxy))bis(5-chloro-2-methoxypyridine-6,3-diyl))bis(methylene))bis(azanediyl))bis(3-hydroxy-2-methylpropanoic acid)]	7.19	≥ 10000 nM	7.10	–
COc1nc(OCc2cccc(-c3cccc(COc4nc(OC)c(CN[C@@H](C)CC(=O)O)cc4Cl)c3C)c2C)c(Cl)cc1CN[C@@H](C)CC(=O)O [Example 74, (3S,3′S)-3,3′-((((((2,2′-dimethyl-[1,1′-biphenyl]-3,3′-diyl)bis(methylene))bis(oxy))bis(5-chloro-2-methoxypyridine-6,3-diyl))bis(methylene))bis(azanediyl))dibutyric acid]	6.76	≥ 10000 nM	6.86	–
COc1nc(OCc2cccc(-c3cccc(COc4nc(OC)c(CN[C@H](C)C(=O)O)cc4Cl)c3C)c2C)c(Cl)cc1CN[C@H](C)C(=O)O [Example 90, (2R,2′R)-2,2′-((((((2,2′-dimethyl-[1,1′-biphenyl]-3,3′-diyl)bis(methylene))bis(oxy))bis(5-chloro-2-methoxypyridine-6,3-diyl))bis(methylene))bis(azanediyl))dipropionic acid]	6.66	≥ 10000 nM	6.95	–
COc1nc(OCc2cccc(-c3cccc(COc4nc(OC)c(CNC5(C(=O)O)CC5)cc4Cl)c3C)c2C)c(Cl)cc1CNC1(C(=O)O)CC1 [Example 91, 1,1′-((((((2,2′-dimethyl-[1,1′-biphenyl]-3,3′-diyl)bis(methylene))bis(oxy))bis(5-chloro-2-methoxypyridine-6,3-diyl))bis(methylene))bis(azanediyl))bis(cyclopropane-1-carboxylicacid)]	6.71	≥ 10000 nM	6.28	–
Cc1c(COc2cc(OCc3cncc(C#N)c3)c(CNC[C@@H](O)CC(=O)O)cc2Cl)cccc1-c1cccc(-c2ccc(OCCNC[C@@H](O)CC(=O)O)c([N+](=O)[O-])c2)c1C [Example 92, (S)-4-((4-((4″-(2-(((S)-3-carboxy-2-hydroxypropyl)amino)ethoxy)-2,2′-dimethyl-3″-nitro-[1,1′:3′,1″-terphenyl]-3-yl)methoxy)-5-chloro-2-((5-cyanopyridin-3-yl)methoxy)benzyl)amino)-3-hydroxybutanoic acid]	7.59	170 nM	7.20	–
Cc1c(COc2cc(OCc3cncc(C#N)c3)c(CN[C@@H](C)C(=O)O)cc2Cl)cccc1-c1cccc(-c2ccc(OCCN[C@@H](C)C(=O)O)c([N+](=O)[O-])c2)c1C [Example 93, (4-((4″-(2-(((S)-1-carboxyethyl)amino)ethoxy)-2,2′-dimethyl-3″-nitro-[1,1′:3′,1″-terphenyl]-3-yl)methoxy)-5-chloro-2-((5-cyanopyridin-3-yl)methoxy)benzyl)-L-alanine]	7.35	145 nM	6.90	–
COc1nc(OCc2cccc(-c3cccc(-c4ccc(OCCNC[C@@H](O)CC(=O)O)cc4)c3C)c2C)c(Cl)cc1CNC[C@@H](O)CC(=O)O [Example 109, (S)-4-(((6-((4″-(2-(((S)-3-carboxy-2-hydroxypropyl)amino)ethoxy)-2,2′-dimethyl-[1,1′:3′,1″-terphenyl]-3-yl)methoxy)-5-chloro-2-methoxypyridin-3-yl)methyl)amino)-3-hydroxybutanoic acid]	8.12	113 nM	6.18	–
COc1nc(OCc2cccc(-c3cccc(-c4ccc(OCCNC[C@H](O)CC(=O)O)cc4)c3C)c2C)c(Cl)cc1CNC[C@H](O)CC(=O)O [Example 110, (R)-4-(((6-((4″-(2-(((R)-3-carboxy-2-hydroxypropyl)amino)ethoxy)-2,2′-dimethyl-[1,1′:3′,1″-terphenyl]-3-yl)methoxy)-5-chloro-2-methoxypyridin-3-yl)methyl)amino)-3-hydroxybutanoic acid]	8.19	194 nM	6.45	–
Cc1c(COc2cc(OCc3cncc(C#N)c3)c(CNC[C@@H](O)CC(=O)O)cc2Cl)cccc1-c1cccc(-c2ccc(OCCNC[C@@H](O)CC(=O)O)cn2)c1C [Example 112, (S)-4-((4-((3′-(5-(2-(((S)-3-carboxy-2-hydroxypropyl)amino)ethoxy)pyridin-2-yl)-2,2′-dimethyl-[1,1′-biphenyl]-3-yl)methoxy)-5-chloro-2-((5-cyanopyridin-3-yl)methoxy)benzyl)amino)-3-hydroxybutanoic acid]	7.46	184 nM	6.54	–
COc1nc(OCc2cccc(-c3cccc(COc4nc(OC)c(CN(CCCC(N)=O)CC(=O)O)cc4Br)c3C)c2C)c(Br)cc1CN(CCCC(N)=O)CC(=O)O [Example 117, 2,2′-((((((2,2′-dimethyl-[1,1′-biphenyl]-3,3′-diyl)bis(methylene))bis(oxy))bis(5-bromo-2-methoxypyridine-6,3-diyl))bis(methylene))bis((4-amino-4-oxobutyl)azanediyl))diacetic acid]	6.80	361 nM	6.11	–
Cc1c(COc2nc(OCc3cc(C#N)cc(C#N)c3)c(CN[C@@](C)(CO)C(=O)O)cc2Cl)cccc1-c1cccc(COc2nc(OCc3cc(C#N)cc(C#N)c3)c(CN[C@@](C)(CO)C(=O)O)cc2Cl)c1C [Example 123, (2S,2′S)-2,2′-((((((2,2′-dimethyl-[1,1′-biphenyl]-3,3′-diyl)bis(methylene))bis(oxy))bis(5-chloro-2-((3,5-dicyanobenzyl)oxy)pyridine-6,3-diyl))bis(methylene))bis(azanediyl))bis(3-hydroxy-2-methylpropanoic acid)]	6.86	198 nM	7.12	–
COc1nc(OCc2cccc(-c3cccc(COc4nc(OC)c(CNC[C@@H](O)CC(=O)O)cc4C#N)c3C)c2C)c(C#N)cc1CNC[C@@H](O)CC(=O)O [Example 243, (3S,3′S)-4,4′-((((((2,2′-dimethyl-[1,1′-biphenyl]-3,3′-diyl)bis(methylene))bis(oxy))bis(5-cyano-2-methoxypyridine-6,3-diyl))bis(methylene))bis(azanediyl))bis(3-hydroxybutanoic acid)]	7.04	–	6.41	9.70
COc1cc(OCc2cccc(-c3cccc(COc4cc(OC)c(CNC[C@@H](O)CC(=O)O)c(OCc5cncc(C#N)c5)c4)c3C)c2C)cc(OCc2cncc(C#N)c2)c1CNC[C@@H](O)CC(=O)O [Example 245, (3S,3′S)-4,4′-((((((2,2′-dimethyl-[1,1′-biphenyl]-3,3′-diyl)bis(methylene))bis(oxy))bis(2-((5-cyanopyridin-3-yl)methoxy)-6-methoxy-4,1-phenylene))bis(methylene))bis(azanediyl))bis(3-hydroxybutanoic acid)]	6.51	–	5.46	9.22
Cc1c(COc2ccc(CNC[C@@H](O)CC(=O)O)c(OCc3cncc(C#N)c3)c2)cccc1-c1cccc(COc2ccc(CNC[C@@H](O)CC(=O)O)c(OCc3cncc(C#N)c3)c2)c1C [Example 248, (3S,3′S)-4,4′-((((((2,2′-dimethyl-[1,1′-biphenyl]-3,3′-diyl)bis(methylene))bis(oxy))bis(2-((5-cyanopyridin-3-yl)methoxy)-4,1-phenylene))bis(methylene))bis(azanediyl))bis(3-hydroxybutanoic acid)]	6.70	–	6.27	9.70
Cc1c(COc2cc(OCC3CCOC3)c(CNC[C@@H](O)CC(=O)O)cc2Cl)cccc1-c1cccc(COc2cc(OCC3CCOC3)c(CNC[C@@H](O)CC(=O)O)cc2Cl)c1C (stereo partly drawn) [Example 280, (3S,3′S)-4,4′-((((((2,2′-dimethyl-[1,1′-biphenyl]-3,3′-diyl)bis(methylene))bis(oxy))bis(5-chloro-2-((tetrahydrofuran-3-yl)methoxy)-4,1-phenylene))bis(methylene))bis(azanediyl))bis(3-hydroxybutanoic acid)]	6.68	–	6.23	9.52
